Data: US20210323908A1, “PROCESS FOR PRODUCING TCA CYCLE INTERMEDIATE CONJUGATES” (IMBRIA PHARMACEUTICALS, INC., priority 2020, published 2021)

How the values were obtained:
Type in all cases: physicochemical
[1] = Solubility of the Type A crystal polymorph (stated as a conclusion, no method given); settings: solid crystal polymorph identified as Type A
[2] = Stability of the Type A crystal polymorph (stated as a conclusion, no method given); settings: solid crystal polymorph identified as Type A
[3] = Decomposition of the product in hot water, observed during work-up; settings: in water at 70-80° C.
Protocol: The reaction mixtures were filtered to remove solvents. The wet cake was charged to a reactor. […] 6 kg of MS001 Silica Thiol was added to the filtrate at about 60-70° C., stirred for 1 hour, and filtered through a pad of fresh Celite.
A total of 20 kg of a compound of Formula (X) was made from 56.6 kg of a compound of Formula (IV), with 98.0% and a 73.5% yield. The yield of the manufacture is consistent to the Lab batch.

solubility of the solid crystal polymorph Type A [1]: soluble
stability of the solid crystal polymorph Type A [2]: highly stable
stability in water at elevated temperature [3]: could be decomposed in water
Compound: N[C@@H](COC(=O)CCC(=O)O)C(=O)O [Formula (X)]
